{"source": "paper PMC12607897", "about": "“Inhibition of HIV-1 replication by primer RNA packaging inhibitors” (mBio, 2025)", "key": {"[1]": {"target": "T1, mLysRS:IN interaction (human mLysRS, HIV-1 IN) (UniProt P12497+Q15046)", "T1 construct": "made in house", "T1 sequence (Q15046 other isoform, or with tags, fused parts or gaps, other chains not shown)": "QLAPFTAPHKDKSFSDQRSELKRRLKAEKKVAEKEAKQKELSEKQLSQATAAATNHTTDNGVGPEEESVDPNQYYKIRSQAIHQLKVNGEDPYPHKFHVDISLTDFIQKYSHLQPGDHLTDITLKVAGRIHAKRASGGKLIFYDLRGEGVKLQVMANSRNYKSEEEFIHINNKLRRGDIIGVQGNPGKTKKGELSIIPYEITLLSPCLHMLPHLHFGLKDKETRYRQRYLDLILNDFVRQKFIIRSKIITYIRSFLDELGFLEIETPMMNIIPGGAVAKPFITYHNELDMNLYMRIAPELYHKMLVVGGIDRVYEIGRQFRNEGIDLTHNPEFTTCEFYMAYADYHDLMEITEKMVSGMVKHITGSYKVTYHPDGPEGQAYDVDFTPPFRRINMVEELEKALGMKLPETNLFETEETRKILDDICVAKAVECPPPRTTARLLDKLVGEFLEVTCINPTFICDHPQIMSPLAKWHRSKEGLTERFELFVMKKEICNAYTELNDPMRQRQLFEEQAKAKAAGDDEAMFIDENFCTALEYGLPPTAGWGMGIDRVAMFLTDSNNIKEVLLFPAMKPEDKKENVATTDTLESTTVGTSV", "assay": "HTRF assay of mLysRS:IN interaction", "assay_type": "binding, human / HIV-1", "details": "for effect on the mLysRS:IN interaction in the HTRF assay: dihydropyridine derivatives, Fig. S2", "procedure": "Fig 1 Determination of the half-maximal inhibitory concentration (IC50) of the drugs in the mLysRS:IN binding assay. The binding of mLysRS to IN (red) or p38 (blue) was monitored in the HTRF assay in the presence of increasing drug concentrations (9–1,000 µM). The experimental values (symbols) were fitted (curves) to the equation Y = Ymin + {(Ymax − Ymin)/[1 + (X/IC50)^n]}, where n is the Hill coefficient. […] Proteins were isolated as described previously ([4]). Several batches of IN were used throughout this study. […] The molecules are dissolved in DMSO at a final concentration of 10 mM. After a 1 h incubation on ice, antibodies (Cisbio) directed to the His-tag and conjugated with Eu^3+ cryptate (Cisbio #61HISKLB) and the HA-tag conjugated with XL665 (Cisbio #610HAXLB) were added, and incubation was continued for 30 min. After the addition of 50 mM KF, fluorescence of Eu^3+ cryptate and of XL665 was recorded at 620 nm (I620) and 665 nm (I665), respectively, following excitation of Eu^3+ cryptate at 317 nm, in an Infinite M1000 PRO microplate reader (TECAN). The results were expressed as the ratio of I665/I620."}, "[2]": {"tested_on": "MT4 cells", "assay": "cell toxicity by MTT assay", "assay_type": "cell-based, human", "details": "MTT assay, 1, 3.3 or 10 µM", "procedure": "(§1) Fig 3 Effect of the inhibitors on HIV-1 replication and cell toxicity. MT4 cells were infected with NL4-3-GFP virus. Two days after infection, inhibitors were added to the culture medium at final concentrations of 1, 3.3, or 10 µM. The final concentration of DMSO was 0.1%. Five days after infection, GFP expression was quantified by flow cytometry, and cell viability was determined by the MTT assay. NInf corresponds to non-infected cells. Six independent experiments were performed, and standard deviations are shown. A Student t-test was used to determine statistical significance compared with the control experiment with DMSO (*: P < 0.001; **: P < 0.0001).\nReplication of the NL4-3 virus was determined either by the ELISA technique or in HeLa-P4 cells by the CPRG method as described previously ([29]). These are HeLa CD4 LTR-lacZ cells in which the expression of lacZ is induced by the HIV transactivator Tat, allowing precise quantification of the infectivity of HIV-1. The viral titer was determined by quantifying β-galactosidase activity in HeLa-P4 lysates in a colorimetric assay based on the cleavage of chlorophenol red-β-D-galactopyranoside (CPRG) by β-galactosidase. The cytotoxicity is evaluated by the MTT assay."}, "[3]": {"tested_on": "HIV-1 NLENG1-IRES-GFP (NL4-3-GFP) virus in MT4 cells", "assay": "ex vivo HIV-1 replication assay, GFP expression by flow cytometry in infected MT4 cells (multiple cycles)", "assay_type": "cell-based", "details": "for GFP fluorescence, % of the value observed when DMSO was added alone: drug 10 µM, added 36–48 h after infection, read 72 h later", "procedure": "To test this hypothesis, azelastine, lacidipine, and cilnidipine were used in an ex vivo assay to determine their effect on HIV-1 proliferation. MT4 cells were infected with NLENG1-IRES-GFP, a virus that allows for multiple cycles of infection, and the molecules were added to the medium 36–48 h after infection, before the completion of the first round of viral infection; 72 h after the drugs were added, when two rounds of HIV-1 infection were underway, the level of GFP fluorescence was determined by flow cytometry, as a marker of HIV-1 infection (Fig. 3, left panel). HIV-1 replication was inhibited in a dose-dependent manner. […]. […] At the same time, no drug toxicity was observed, as determined by the MTT assay (Fig. 3, right panel). […] The selectivity index (SI) ([24]) of the three drugs, defined as the ratio of 50% cytotoxic concentration (CC50; >20 µM) to 50% inhibitory concentration (IC50; ~5 µM), >4.\nas §1\nMT4 cell line ([26]) was maintained in RPMI 1640. HEK293T and HeLa-P4 cells ([27]) were maintained in Dulbecco’s modified Eagle medium (DMEM). All media were supplemented with Glutamax and with 10% heat-inactivated fetal calf serum (Hyclone) and 1% penicillin/streptomycin (100 units/mL) (Gibco). All media were purchased from Gibco (Life Technologies Co.). All cell lines used here were incubated at 37 °C, under 5% CO2 atmosphere. HIV-1 stocks were prepared by calcium phosphate-mediated transfection of HEK293T cells, as previously described ([22]), with shuttle vector plasmids encoding HIV-1 NL4-3 (GenBank: AF324493.1) or NLENG1-IRES-GFP ([28]). The latter vector comes from the HIV NL4-3 strain and contains a gfp-IRES-nef cassette at the nef locus. […].\nFor NL4-3-GFP vectors, viral infection is followed by GFP expression (i.e., the percentage and geometric mean fluorescence intensity [MFI] of GFP^+ cells). Infectivity was estimated by flow cytometry using a FACS Celesta flow cytometer (BD Biosciences). Toxicity is also assessed by flow cytometry (side and forward scatter)."}, "[4]": {"target": "mLysRS (Homo sapiens, UniProt Q15046)", "sequence (Q15046 31-625 isoform Q15046-2)": "as the sequence (Q15046 other isoform, or with tags, fused parts or gaps, other chains not shown) above", "assay": "tRNA aminoacylation assay", "assay_type": "biochemical", "details": "drug added up to 1 mM", "procedure": "Initial rates of tRNA aminoacylation were measured at 25°C in 0.1 mL of 20 mM Imidazole-HCl buffer (pH 7.5), 100 mM KCl, 0.5 mM DTT, 12 mM MgCl2, 2 mM ATP, 180 µM ^14C-labeled lysine (NEN; 16.66 Ci/mol), and saturating amounts of global yeast tRNA ([30]). The incubation mixture contained catalytic amounts (2 nM) of mLysRS appropriately diluted in 10 mM Tris-HCl (pH 7.5), 10 mM 2-mercaptoethanol, containing bovine serum albumin at 4 mg/mL. Inhibitors were added at final concentrations ranging from 3.9 to 1,000 µM. One unit of activity is the amount of enzyme producing 1 nmol of lysine-tRNA^Lys/min, at 25°C.\nFig. S5. Effect of inhibitors on mLysRS activity. The tRNA-aminoacylation activity of mLysRS\nwas determined in the presence of increasing concentrations of the drugs. Two independent\nexperiments were performed and standard deviations are shown.\nFig. 6. Raw data of quantification of minus-strand strong stop viral DNA and viral RNA by\ndigital PCR from viruses recovered after 72 h incubation in the presence of 10 µM of the drugs."}, "[5]": {"tested_on": "HIV-1 NL4-3 virus particles", "assay": "digital PCR / RT-dPCR of minus-strand strong stop cDNA and viral RNA in particles", "assay_type": "cell-based", "details": "10 µM drug, 72 and 96 h after infection", "excerpt": "We used digital RT-PCR and digital PCR to determine the viral mRNA and minus-strand strong stop viral cDNA content of the particles (Fig. 7; Fig. S6). The amount of early viral cDNA produced in the HIV-1 particles is a measure of the efficiency of the initiation step of reverse transcription, which requires the packaging of tRNA3^Lys at the budding step, the primer for cDNA synthesis.\nFig 7 Effect of drugs on viral synthesis of minus-strand strong stop cDNA. Viruses were harvested from the culture medium after 72 (red) or 96 h (blue) of infection of MT4 cells with NL4-3 viruses. Minus-strand strong stop viral DNA and viral RNA (vRNA) were quantified by digital PCR and RT-dPCR, respectively. Viruses were harvested from cultures grown in the presence of 10 µM of azelastine (Aze), lacidipine (Lac), or cilnidipine (Cil), or H2O or DMSO as controls. Values and the associated standard deviations (n = 3) are expressed as the ratios of the values obtained for the H2O or DMSO controls. […].\nMT4 cells (2 × 10^6 cells) were infected with the NL4-3 viruses. After 4–5 h of infection at 37°C, cells were twice washed with PBS, incubated 5 min at 37°C in 0.25% trypsin-EDTA solution (Gibco) to eliminate viruses remaining in the medium, incubated 5 min at 37°C in complete RPMI medium, twice washed with PBS, resuspended in RPMI medium at a cell density of 200 × 10^3 cells/mL and incubated with 10 µM of azelastine (25 mM stock solution in H20), or lacidipine and cilnidipine (25 mM stock solution in DMSO). A second aliquot of the inhibitors was added to the culture medium 48 h after infection. […] All RNA and DNA quantifications were performed by digital PCR and RT-qPCR on a QIAcuity instrument (QIAGEN) using 26K 24-well nanoplates and the QIAcuity Probe PCR and One-Step Viral RT-PCR kits. Primers and probes were 5′-[…], 5′-[…], and 5′-[…] for the quantification of minus-strand strong-stop cDNA, and 5′-[…], 5′-[…], and 5′-[…] CGT for viral RNA quantification."}, "[6]": {"details": "HTRF, mLysRS 1.5 nM dimer, IN 25 nM dimer, read-out: half-maximal inhibitory concentration (IC50) in the mLysRS:IN assay"}}, "note": "Read-outs that look alike come from different tables or passages of the source."}
{"compound": "CCOC(=O)C1=C(C)NC(C)=C(C(=O)OCC)C1", "note": "[Diludine]", "values": [{"measurement": "effect on the mLysRS:IN interaction in the HTRF assay", "setting": "[1]", "value": "did not significantly alter"}]}
{"compound": "COC(=O)C1=C(C)NC(C)=C(C(=O)OC(C)(C)CN(C)CCC(c2ccccc2)c2ccccc2)C1c1cccc([N+](=O)[O-])c1", "note": "(centres unmarked) [Lercanidipine]", "values": [{"measurement": "cell toxicity", "setting": "[2]", "value": "higher cellular toxicity"}]}
{"compound": "CC1=C(C(=O)OC(C)C)C(c2cccc([N+](=O)[O-])c2)C(C(=O)OC2CN(C(c3ccccc3)c3ccccc3)C2)=C(N)N1", "note": "(centres unmarked) [azelnidipine]", "values": [{"measurement": "cell toxicity", "setting": "[2]", "value": "higher cellular toxicity"}]}
{"compound": "CCCC(=O)OCOC(=O)C1=C(C)NC(C)=C(C(=O)OC)C1c1cccc(Cl)c1Cl", "note": "(centres unmarked) [celvidipine]", "values": [{"measurement": "effect on the mLysRS:IN interaction in the HTRF assay", "setting": "[1]", "value": "did not significantly alter"}]}
{"compound": "COCCOC(=O)C1=C(C)NC(C)=C(C(=O)OC/C=C/c2ccccc2)C1c1cccc([N+](=O)[O-])c1", "note": "(centres unmarked) [cilnidipine]", "values": [{"measurement": "GFP fluorescence, % of the value observed when DMSO was added alone", "setting": "[3]", "value": 18.9, "unit": "%"}, {"measurement": "IC50", "setting": "[1]; [6]", "value": "310 ± 30", "unit": "µM"}, {"measurement": "inhibition of Lysyl-tRNA^Lys synthesis", "setting": "[4]", "value": "did not inhibit"}, {"measurement": "minus-strand strong stop cDNA in viruses, normalized to viral RNA", "setting": "[5]", "value": "significantly reduced"}]}
{"compound": "CCOC(=O)C1=C(C)NC(C)=C(C(=O)OC)C1c1cccc(Cl)c1Cl", "note": "(centres unmarked) [felodipine]", "values": [{"measurement": "effect on the mLysRS:IN interaction in the HTRF assay", "setting": "[1]", "value": "did not significantly alter"}]}
{"compound": "COC(=O)C1=C(C)NC(C)=C(C(=O)OC(C)C)C1c1cccc2nonc12", "note": "(centres unmarked) [isradipine]", "values": [{"measurement": "IC50", "setting": "[1]", "value": "> 500", "unit": "µM"}]}
{"compound": "CCOC(=O)C1=C(C)NC(C)=C(C(=O)OCC)C1c1ccccc1/C=C/C(=O)OC(C)(C)C", "note": "[lacidipine]", "values": [{"measurement": "GFP fluorescence, % of the value observed when DMSO was added alone", "setting": "[3]", "value": 27.2, "unit": "%"}, {"measurement": "IC50", "setting": "[1]; [6]", "value": "64 ± 8", "unit": "µM"}, {"measurement": "inhibition of Lysyl-tRNA^Lys synthesis", "setting": "[4]", "value": 30, "unit": "%"}, {"measurement": "minus-strand strong stop cDNA in viruses, normalized to viral RNA", "setting": "[5]", "value": "significantly reduced"}]}
{"compound": "CCOC(=O)C1=C(COCCN)NC(C)=C(C(=O)OC)[C@@H]1c1ccccc1Cl", "note": "[levamlodipine]", "values": [{"measurement": "effect on the mLysRS:IN interaction in the HTRF assay", "setting": "[1]", "value": "did not significantly alter"}]}
{"compound": "COC(=O)C1=C(C)NC(C)=C(C(=O)OCCN(C)Cc2ccccc2)C1c1cccc([N+](=O)[O-])c1", "note": "(centres unmarked) [nicardipine]", "values": [{"measurement": "IC50", "setting": "[1]", "value": "> 500", "unit": "µM"}]}
{"compound": "COCCOC(=O)C1=C(C)NC(C)=C(C(=O)OC(C)C)C1c1cccc([N+](=O)[O-])c1", "note": "(centres unmarked) [nimodipine]", "values": [{"measurement": "effect on the mLysRS:IN interaction in the HTRF assay", "setting": "[1]", "value": "did not significantly alter"}]}
{"compound": "COC(=O)C1=C(C)NC(C)=C(C(=O)OCC(C)C)C1c1ccccc1[N+](=O)[O-]", "note": "(centres unmarked) [nisoldipine]", "values": [{"measurement": "inhibition of HIV-1 replication in the ex vivo assay", "setting": "[3]; NL4-3-GFP, Fig. S3", "value": "did not inhibit"}]}
{"compound": "CCOC(=O)C1=C(C)NC(C)=C(C(=O)OC)C1c1cccc([N+](=O)[O-])c1", "note": "(centres unmarked) [nitrendipine]", "values": [{"measurement": "IC50", "setting": "[1]", "value": "> 500", "unit": "µM"}]}
{"compound": "COC(=O)C1=C(C#N)NC(C)=C(C(=O)OC(C)C)C1c1cccc([N+](=O)[O-])c1", "note": "(centres unmarked) [nivaldipine]", "values": [{"measurement": "IC50", "setting": "[1]; [6]", "value": "> 500", "unit": "µM"}]}
